From patent publication US11312722B2, “Hsp90 inhibitors and uses thereof” (TRUSTEES OF BOSTON UNIVERSITY, priority 2019, dated 2022)
Where two headings read alike, the source gives them in different places.

Tests used:
[1] = target: Hsp90 (C. albicans whole cell lysate) (Candida albicans (strain SC5314 / ATCC MYA-2876) (Yeast), UniProt P46598); test: biochemical; assay type: binding; settings: for C. alb Active (biochemical): Yes/No call
Description: All analogs were assessed for Hsp90 binding affinity using a fluorescence polarization (FP)-based equilibrium competition assay in fungal and human whole cell lysates. […] Using lysates, the relative potency and selectivity for fungal Hsp90 was measured versus the entire ensemble of human Hsp90 isoforms in microplate format using small amounts of test materials. […] Thermal shift assays were performed under saturating ligand conditions, i.e. equimolar concentrations (10 μM) of protein and ligand. As a result, they provided qualitative evidence of target binding, but not a quantitative measurement of ligand affinity. For quantitation, a ligand dissociation constant (Ki) for key compounds was also determined using purified NBDs in FP assays and KD measurements were made by surface plasmon resonance (SPR) using a Biacore instrument. Finally, all analogs were assessed for whole cell antifungal activity against the pathogens C. albicans and C. neoformans.
FP assays. Whole cell lysates were prepared for FP assays as described previously. Total protein concentration of human and yeast lysates was determined by Bradford assay. […] Serial dilutions of test Hsp90 inhibitors were then assayed under these same conditions to monitor loss of fluorescence polarization as an indicator of probe displacement from Hsp90. […] Titrations of test compound in 25 μL of binding buffer (supplemented with 0.1 mg/mL bovine gamma globulin), were mixed with an equal volume of freshly prepared whole-cell lysate spiked with Cy3-GdA (0.1 nM). Plates were incubated at room temperature for 4.5 h to achieve equilibrium binding for the geldanamycin-based probe. […] Non-linear 4-parameter curve fitting of raw displacement data was performed in GraphPad Prism 5.0 to determine EC50 values as a measure of relative Hsp90-binding affinity. Results were normalized to the value determined for GdA in lysate of each cell type.
Statistical methods. […] In calculating the error of selectivity determinations, the fractional error of measurements in each species was summed to yield a composite error for the derived ratio.

[2] = system: C. neoformans (Strain H99); test: Antifungal sensitivity testing (MIC), C. neoformans H99; assay type: cell-based; settings: for MIC80 / MIC90: Cryptococcus neoformans; for MIC80: read-out: C. neo MIC80; for MIC90: read-out: C. neo MIC90
Description: Color scale bar: no growth inhibition (green) to complete inhibition (black). Each shaded box represents the mean of technical duplicates. The experiment was repeated as an independent biological replicate to confirm results.
Minimum inhibitory concentration (MIC) value for compounds against C. neoformans (Strain H99) was determined in dose-response format, in technical duplicate. Experiments were conducted in RPMI medium at 37° C. for 48 h. Relative viable cell number was measured by standard dye reduction (resazurin) assay.
Yeast strains and culture conditions. Strains used in this study were C. albicans CaCi2 (clinical isolate 2), [58] SC5314, [59] and C. neoformans H99. […] Active cultures were maintained on solid (2% agar) yeast extract peptone (YPD, 1% yeast extract, 2% bactopeptone, 2% glucose) at 4° C. for no more than one month.
Antifungal sensitivity testing. […] Each compound was tested in duplicate in at least two independent experiments. […] Plates were photographed after 24 h of incubation at 30° C.

[3] = FP competition, whole cell lysate, duplicate, screening experiment, read-out: C. albicans EC50

Compound	C. alb Active (biochemical) [1]	EC50 ([1]; read-out: C. alb EC50)	MIC80 [2]	MIC90 [2]	further results
Cc1ccc(F)c(-c2cc(Nc3cc(O)cc(O)c3C(=O)N3Cc4ccccc4C3)n(C)n2)c1 [ACSM01268]	Yes	1.68 µM			
Cc1ccccc1-c1cc(Nc2cc(O)cc(O)c2C(=O)N2Cc3cn[nH]c3C2)n(C)n1 [Compound 108, 5-((1-Methyl-3-(2-methylphenyl)-1H-pyrazol-5-yl)amino)-4-(1H,4H,5H,6H-pyrrolo[3,4-c]pyrazole-5-carbonyl)benzene-1,3-diol]	Yes		> 25 µM	> 25 µM	
Cn1nc(-c2cccc(Cl)c2)cc1Nc1cc(O)cc(O)c1C(=O)N1Cc2ccccc2C1 [ACSM01362]	Yes	4.17 µM			
Cn1nccc1Nc1cc(O)cc(O)c1C(=O)N1Cc2cn[nH]c2C1 [Compound 58, 5-((1-Methyl-1H-pyrazol-5-yl)amino)-4-(1H,4H,5H,6H-pyrrolo[3,4-c]pyrazole-5-carbonyl)benzene-1,3-diol]	Yes		> 25 µM	> 25 µM	
Cn1nc(-c2ccccc2)cc1Nc1cc(O)cc(O)c1C(=O)N1Cc2cccnc2C1 [Compound 92, 5-((1-Methyl-3-phenyl-1H-pyrazol-5-yl)amino)-4-(5H,6H,7H-pyrrolo[3,4-b]pyridine-6-carbonyl)benzene-1,3-diol]	Yes		> 25 µM	> 25 µM	
Cn1nc(-c2cccc(C(F)(F)F)c2)cc1Nc1cc(O)cc(O)c1C(=O)N1Cc2ccccc2C1 [Compound 115, 4-(2,3-Dihydro-1H-isoindole-2-carbonyl)-5-((1-methyl-3-(3-(trifluoromethyl)phenyl)-1H-pyrazol-5-yl)amino)benzene-1,3-diol]	Yes		> 25 µM	> 25 µM	
Cc1ccc(-c2cc(Nc3cc(O)cc(O)c3C(=O)N3Cc4cn[nH]c4C3)n(C)n2)cc1 [Compound 120, 5-((1-Methyl-3-(4-methylphenyl)-1H-pyrazol-5-yl)amino)-4-(1H,4H,5H,6H-pyrrolo[3,4-c]pyrazole-5-carbonyl)benzene-1,3-diol]	Yes		> 25 µM	> 25 µM	
Cc1cccc(-c2cc(Nc3cc(O)cc(O)c3C(=O)N3Cc4ccccc4C3)n(C)n2)c1C [ACSM01272]	Yes	6.2 µM			
COc1ccc(Cn2nc(C)cc2Nc2cc(O)cc(O)c2C(=O)N(C)CC2CC2)cc1 [Compound 30, N-(Cyclopropylmethyl)-2,4-dihydroxy-6-((1-((4-methoxyphenyl)methyl)-3-methyl-1H-pyrazol-5-yl)amino)-N-methylbenzamide]	No	> 9 µM	> 25 µM	> 25 µM	EC50 [1, 3]: > 9 µM
COc1ccc(-c2cc(Nc3cc(O)cc(O)c3C(=O)N3Cc4ccccc4C3)n(C)n2)cc1 [Compound 121, 4-(2,3-Dihydro-1H-isoindole-2-carbonyl)-5-((3-(4-methoxyphenyl)-1-methyl-1H-pyrazol-5-yl)amino)benzene-1,3-diol]			> 25 µM	> 25 µM	C. neo Active (cells) ([2]; Yes/No call): No
COc1cccc(-c2cc(Nc3cc(O)cc(O)c3C(=O)N3Cc4cccc(F)c4C3)n(C)n2)c1 [ACSM01130]	Yes	5.82 µM			C. neo MIC80 [2]: >50 µM; C. neo MIC90 [2]: >50 µM
Cn1nc(-c2cc(F)ccc2F)cc1Nc1cc(O)cc(O)c1C(=O)N1Cc2ccccc2C1 [ACSM01270]	Yes	1.12 µM			
Cc1ccc(-c2cc(Nc3cc(O)cc(O)c3C(=O)N3Cc4cccnc4C3)n(C)n2)cc1 [Compound 119, 5-((1-Methyl-3-(4-methylphenyl)-1H-pyrazol-5-yl)amino)-4-(5H,6H,7H-pyrrolo[3,4-b]pyridine-6-carbonyl)benzene-1,3-diol]	Yes		> 25 µM	> 25 µM	
Cc1ccc(-c2cc(Nc3cc(O)cc(O)c3C(=O)N3Cc4ccccc4C3)n(C)n2)cc1 [Compound 118, 4-(2,3-Dihydro-1H-isoindole-2-carbonyl)-5-((1-methyl-3-(4-methylphenyl)-1H-pyrazol-5-yl)amino)benzene-1,3-diol]	Yes		> 25 µM	> 25 µM	
Cn1nc(-c2cccc(F)c2F)cc1Nc1cc(O)cc(O)c1C(=O)N1Cc2ccccc2C1 [ACSM01269]	Yes	2.21 µM			
COc1ccc(-c2cc(Nc3cc(O)cc(O)c3C(=O)N3Cc4cccnc4C3)n(C)n2)cc1 [Compound 122, 5-((3-(4-Methoxyphenyl)-1-methyl-1H-pyrazol-5-yl)amino)-4-(5H,6H,7H-pyrrolo[3,4-b]pyridine-6-carbonyl)benzene-1,3-diol]	Yes		> 25 µM	> 25 µM	
Cn1nc(-c2cccc(F)c2)cc1Nc1cc(O)cc(O)c1C(=O)N1Cc2ccccc2C1 [ACSM01345]	Yes	1.25 µM			
Cc1ccccc1-c1cc(Nc2cc(O)cc(O)c2C(=O)N2Cc3ccc(F)cc3C2)n(C)n1 [ACSM01135]	Yes	0.904 µM			
CC(C)(C)n1nc(-c2ccccc2)cc1Nc1cc(O)cc(O)c1C(=O)N1Cc2cccnc2C1 [Compound 94, 5-((1-tert-Butyl-3-phenyl-1H-pyrazol-5-yl)amino)-4-(5H,6H,7H-pyrrolo[3,4-b]pyridine-6-carbonyl)benzene-1,3-diol]	Yes		> 25 µM	> 25 µM	
Cc1cccc(-c2cc(Nc3cc(O)cc(O)c3C(=O)N3Cc4ccccc4C3)n(C)n2)c1F [ACSM01273]	Yes				
Cn1nc(C2CCCCC2)cc1Nc1cc(O)cc(O)c1C(=O)N1Cc2cccnc2C1 [Compound 104, 5-((3-Cyclohexyl-1-methyl-1H-pyrazol-5-yl)amino)-4-(5H,6H,7H-pyrrolo[3,4-b]pyridine-6-carbonyl)benzene-1,3-diol]	Yes		> 25 µM	> 25 µM	
Cn1nc(-c2cccc(C(F)(F)F)c2)cc1Nc1cc(O)cc(O)c1C(=O)N1Cc2cccnc2C1 [Compound 116, 5-((1-Methyl-3-(3-(trifluoromethyl)phenyl)-1H-pyrazol-5-yl)amino)-4-(5H,6H,7H-pyrrolo[3,4-b]pyridine-6-carbonyl)benzene-1,3-diol]	Yes		> 25 µM	> 25 µM	
COc1ccccc1-c1cc(Nc2cc(O)cc(O)c2C(=O)N2CC[C@H](N)C2)n(C)n1 [ACSM01271]	Yes	5.34 µM			C. neo MIC80 [2]: >25 µM; C. neo MIC90 [2]: >25 µM
Cn1nc(-c2cccc(C(F)(F)F)c2)cc1Nc1cc(O)cc(O)c1C(=O)N1Cc2cn[nH]c2C1 [Compound 117, 5-((1-Methyl-3-(3-(trifluoromethyl)phenyl)-1H-pyrazol-5-yl)amino)-4-(1H,4H,5H,6H-pyrrolo[3,4-c]pyrazole-5-carbonyl)benzene-1,3-diol]	Yes		> 25 µM	> 25 µM	
COc1ccc(-c2cc(Nc3cc(O)cc(O)c3C(=O)N3Cc4cn[nH]c4C3)n(C)n2)cc1 [Compound 123, 5-((3-(4-Methoxyphenyl)-1-methyl-1H-pyrazol-5-yl)amino)-4-(1H,4H,5H,6H-pyrrolo[3,4-c]pyrazole-5-carbonyl)benzene-1,3-diol]	Yes		> 25 µM	> 25 µM	
Cn1nc(-c2ccccc2)cc1Nc1cc(O)cc(O)c1C(=O)N1Cc2cn[nH]c2C1 [Compound 93, 5-((1-Methyl-3-phenyl-1H-pyrazol-5-yl)amino)-4-(1H,4H,5H,6H-pyrrolo[3,4-c]pyrazole-5-carbonyl)benzene-1,3-diol]	Yes		> 25 µM	> 25 µM	
COc1ccc(Cn2nc(C)cc2Nc2cc(O)cc(O)c2C(=O)N(C)Cc2ccccc2)cc1 [Compound 37, N-Benzyl-2,4-dihydroxy-6-((1-((4-methoxyphenyl)methyl)-3-methyl-1H-pyrazol-5-yl)amino)-N-methylbenzamide]					EC50 [1, 3]: > 6 µM
